This note sets out measurements from ChEMBL document CHEMBL5724696, “Autophagy assay results for EUbOPEN Chemogenomics Library” (2024).

Experiment [1] concerns U2OS. Description: (§1) Here: values are normalized to the positive (DMSO; basel flux = defined as 100% suppression) and negative (250nM Torin1; mTOR inhibitor; maximal inducer of autophagy defined as 0% suppression) control compounds and represented as % of ER-phagy suppression. […] The impact of autophagy induction on cells is complex and depends on the affected target. […] Of note, treatment concentrations may be sub-optimal for specific compounds, leading to false negative annotations. It counts as functional, Homo sapiens. The settings on record: Compound Concentration 1 uM, Culturing Media DMEM, 1 % Penicillin/Streptomycin, 10% Fetal bovin serum Add-On: blasticidin, Screening Media Control DMEM, 10% Fetal bovin serum Add-On: 1 µg/ml Doxycyclin, Screening Media Samples DMEM, 10% Fetal bovin serum Add-On: 1 µg/ml Doxycyclin 250nM Torin1.

Experiment [2] relates to U2OS. The experiment is described as §1. It counts as functional, Homo sapiens. The following applies: Compound Concentration 1 uM, Culturing Media DMEM, 1 % Penicillin/Streptomycin, 10% Fetal bovin serum Add-On: blasticidin, Screening Media Control DMEM, 10% Fetal bovin serum Add-On: 1 µg/ml Doxycyclin, Screening Media Samples DMEM, 10% Fetal bovin serum Add-On: 1 µg/ml Doxycyclin 250nM Torin1. This is another data set of the same source.

Consider `C[C@@H](N)[C@H]1CC[C@H](C(=O)Nc2ccncc2)CC1.Cl.Cl`, for which the ER-phagy suppression in the experiment on U2OS [1] (Timepoint 12 hours) was -1.165%; in the experiment with U2OS [1] (Timepoint 24 hours), -12.4028%; with U2OS [1] (Timepoint 36 hours) it was 0.04526%; with U2OS [1] (Timepoint 60 hours), 2.669%; in the experiment with U2OS [2] (Timepoint 12 hours), -40.2837%; with U2OS [2] (Timepoint 24 hours) it was -57.1688%. The figures for the ER-phagy suppression in the experiment with U2OS [2] (Timepoint 36 hours) and with U2OS [2] (Timepoint 54 hours) were -58.7515% and -55.2677%, respectively.

Take `CNc1nc(-c2ccc3c(N)n[nH]c3c2)cc(N2C[C@@H](C(=O)NC3CCCCC3)CC[C@H]2C)n1`: the ER-phagy suppression in the experiment with U2OS [1] (Timepoint 12 hours) is 0.4494%; in the experiment on U2OS [1] (Timepoint 24 hours), -26.9041%; in the experiment on U2OS [1] (Timepoint 36 hours), -20.7872%; in the experiment with U2OS [1] (Timepoint 60 hours), -21.6855%; in the experiment on U2OS [2] (Timepoint 12 hours), -64.3148%; with U2OS [2] (Timepoint 24 hours), -57.2907%. The ER-phagy suppression in the experiment on U2OS [2] (Timepoint 36 hours) is given as -47.7488%; in the experiment on U2OS [2] (Timepoint 54 hours), -36.1372%.

Regarding `Cc1ccc(NC(=O)Nc2cc(C(F)(F)F)ccc2F)cc1Nc1ccc2c(c1)NC(=O)/C2=C\c1ccc[nH]1`, the ER-phagy suppression with U2OS [1] (Timepoint 12 hours) was 18.743%; with U2OS [1] (Timepoint 24 hours), -2.579%; with U2OS [1] (Timepoint 36 hours), -6.116%; in the experiment on U2OS [1] (Timepoint 60 hours) it was -1.261%; in the experiment with U2OS [2] (Timepoint 12 hours) it was -7.664%; in the experiment with U2OS [2] (Timepoint 24 hours), -22.8744%. For the same molecule, the ER-phagy suppression in the experiment on U2OS [2] (Timepoint 36 hours) is given as -24.0512%; in the experiment with U2OS [2] (Timepoint 54 hours) it was -22.1975%.

For `OCCn1cc(-c2ccc3c(c2)CCC3=NO)c(-c2ccncc2)n1`, the ER-phagy suppression in the experiment with U2OS [1] (Timepoint 12 hours) is given as 13.4101%; in the experiment with U2OS [1] (Timepoint 24 hours) it was 0.6971%; in the experiment on U2OS [1] (Timepoint 36 hours), -0.91%; in the experiment on U2OS [1] (Timepoint 60 hours), 0.4621%; in the experiment with U2OS [2] (Timepoint 12 hours) it was -23.6151%; in the experiment on U2OS [2] (Timepoint 24 hours), -59.1263%. For the same molecule, the ER-phagy suppression was -53.5237% in the experiment on U2OS [2] (Timepoint 36 hours) and -39.7477% with U2OS [2] (Timepoint 54 hours).

As for `CN(c1ncccc1CNc1nc(Nc2ccc3c(c2)CC(=O)N3)ncc1C(F)(F)F)S(C)(=O)=O.O=S(=O)(O)c1ccccc1`, the ER-phagy suppression with U2OS [1] (Timepoint 12 hours) is reported as -10.0797%; in the experiment on U2OS [1] (Timepoint 24 hours) it was -6.87%; in the experiment with U2OS [1] (Timepoint 36 hours) it was 0.4518%; with U2OS [1] (Timepoint 60 hours), 0.1589%; in the experiment with U2OS [2] (Timepoint 12 hours), 6.672%; with U2OS [2] (Timepoint 24 hours), -24.1053%. Also, the ER-phagy suppression in the experiment with U2OS [2] (Timepoint 36 hours) was -34.2095%; with U2OS [2] (Timepoint 54 hours), -20.8605%.

Take `CCCCNc1ncc(-c2ccc(CN3CCOCC3)cn2)c(N[C@H]2CC[C@H](O)CC2)n1`: the ER-phagy suppression with U2OS [1] (Timepoint 12 hours) is listed as -8.957%; in the experiment with U2OS [1] (Timepoint 24 hours) it was -7.3145%; in the experiment on U2OS [1] (Timepoint 36 hours) it was 4.583%; in the experiment on U2OS [1] (Timepoint 60 hours), 12.8118%; in the experiment on U2OS [2] (Timepoint 12 hours), -5.509%; in the experiment with U2OS [2] (Timepoint 24 hours) it was -21.7145%. Besides, the ER-phagy suppression in the experiment on U2OS [2] (Timepoint 36 hours) was -31.345%; with U2OS [2] (Timepoint 54 hours), -19.8135%.

On to `O=C(NCc1cccc(O)c1)Nc1nc(-c2ccncc2)cs1`, for which the ER-phagy suppression in the experiment on U2OS [1] (Timepoint 12 hours) is given as 38.3546%; in the experiment with U2OS [1] (Timepoint 24 hours) it was 42.4931%; in the experiment with U2OS [1] (Timepoint 36 hours) it was 43.3897%; with U2OS [1] (Timepoint 60 hours), 45.9293%; in the experiment with U2OS [2] (Timepoint 12 hours) it was -63.2417%; in the experiment with U2OS [2] (Timepoint 24 hours), -37.1145%. For the same molecule, the ER-phagy suppression with U2OS [2] (Timepoint 36 hours) was 6.149%; in the experiment on U2OS [2] (Timepoint 54 hours), 46.7933%.

`Cc1ccc(C(=O)Nc2cccc(C(F)(F)F)c2)cc1Nc1nc(-c2cccnc2)nc2c1cnn2C`: the ER-phagy suppression was 26.4951% with U2OS [1] (Timepoint 12 hours); 22.3835% in the experiment with U2OS [1] (Timepoint 24 hours); 22.4378% with U2OS [1] (Timepoint 36 hours); 22.9955% in the experiment on U2OS [1] (Timepoint 60 hours); 20.046% with U2OS [2] (Timepoint 12 hours); 2.016% in the experiment with U2OS [2] (Timepoint 24 hours). In addition, the results for the ER-phagy suppression with U2OS [2] (Timepoint 36 hours) and in the experiment on U2OS [2] (Timepoint 54 hours) were -6.3% and -2.2204%, respectively.

In the case of `CC1=C(C(=O)Nc2cc3cn[nH]c3cc2F)C(c2ccc(C(F)(F)F)cc2)CC(=O)N1` (configuration not stated), the ER-phagy suppression in the experiment with U2OS [1] (Timepoint 12 hours) is listed as -7.959%; in the experiment with U2OS [1] (Timepoint 24 hours), -2.49%; in the experiment with U2OS [1] (Timepoint 36 hours) it was 15.1812%; in the experiment with U2OS [1] (Timepoint 60 hours), 22.9185%; with U2OS [2] (Timepoint 12 hours) it was -59.3717%; in the experiment on U2OS [2] (Timepoint 24 hours), -37.062%. In addition, the ER-phagy suppression with U2OS [2] (Timepoint 36 hours) is reported as 5.409%; with U2OS [2] (Timepoint 54 hours), 47.7199%.

As to `CCOc1cn(-c2ccc(F)cc2C)nc1C(=O)Nc1ccc(Oc2ccnc3cc(OC)c(OC)cc23)c(F)c1`, the ER-phagy suppression in the experiment on U2OS [1] (Timepoint 12 hours) is on record as 7.441%; in the experiment on U2OS [1] (Timepoint 24 hours), -3.201%; with U2OS [1] (Timepoint 36 hours), 13.658%; in the experiment on U2OS [1] (Timepoint 60 hours) it was 1.882%; in the experiment on U2OS [2] (Timepoint 12 hours), 8.613%; in the experiment on U2OS [2] (Timepoint 24 hours) it was -11.0646%. Further, the ER-phagy suppression is reported as -14.9155% in the experiment on U2OS [2] (Timepoint 36 hours) and -19.0742% with U2OS [2] (Timepoint 54 hours).

Consider `Cc1c(C(=O)Nc2ccc(Oc3ccnc4[nH]cc(-c5ccccc5)c34)c(F)c2)c(=O)n(-c2ccc(F)cc2)n1C`, for which the ER-phagy suppression in the experiment on U2OS [1] (Timepoint 12 hours) is 11.6236%; in the experiment with U2OS [1] (Timepoint 24 hours), -15.4691%; in the experiment on U2OS [1] (Timepoint 36 hours) it was -3.07%; in the experiment on U2OS [1] (Timepoint 60 hours), -1.46%; with U2OS [2] (Timepoint 12 hours) it was 3.929%; in the experiment with U2OS [2] (Timepoint 24 hours) it was -12.4432%. In addition, the ER-phagy suppression with U2OS [2] (Timepoint 36 hours) is -17.5101%; with U2OS [2] (Timepoint 54 hours), -17.0737%.

As to `Cl.Cl.NC1(c2ccc(-c3nc4ccn5c(=O)[nH]nc5c4cc3-c3ccccc3)cc2)CCC1`, the ER-phagy suppression came to 41.5267% in the experiment with U2OS [1] (Timepoint 12 hours); 48.6663% with U2OS [1] (Timepoint 24 hours); 54.9602% in the experiment on U2OS [1] (Timepoint 36 hours); 60.1398% with U2OS [1] (Timepoint 60 hours); 6.566% in the experiment on U2OS [2] (Timepoint 12 hours); 12.3552% in the experiment on U2OS [2] (Timepoint 24 hours). Also, the ER-phagy suppression worked out at 31.5322% with U2OS [2] (Timepoint 36 hours) and 46.784% with U2OS [2] (Timepoint 54 hours).

As to `Cl.NC(=O)c1cnc(N[C@@H]2CCCC[C@@H]2N)nc1Nc1cccc(-n2nccn2)c1`, the ER-phagy suppression in the experiment on U2OS [1] (Timepoint 12 hours) was found to be 9.977%; in the experiment on U2OS [1] (Timepoint 24 hours), 25.4122%; with U2OS [1] (Timepoint 36 hours), 28.6706%; in the experiment on U2OS [1] (Timepoint 60 hours), 31.7231%; with U2OS [2] (Timepoint 12 hours), 27.5492%; in the experiment with U2OS [2] (Timepoint 24 hours), 18.4362%. The results for the ER-phagy suppression in the experiment on U2OS [2] (Timepoint 36 hours) and in the experiment on U2OS [2] (Timepoint 54 hours) were 21.4313% and 34.0409%, respectively.

On to `COc1cc(C2c3cc4c(cc3[C@H](O)[C@H]3COC(=O)[C@@H]23)OCO4)cc(OC)c1OC` (some centres not stated), for which the ER-phagy suppression is listed as 13.7164% in the experiment with U2OS [1] (Timepoint 12 hours); -2.596% in the experiment with U2OS [1] (Timepoint 24 hours); 7.675% with U2OS [1] (Timepoint 36 hours); 9.356% in the experiment on U2OS [1] (Timepoint 60 hours); 19.9758% in the experiment with U2OS [2] (Timepoint 12 hours); 6.76% in the experiment with U2OS [2] (Timepoint 24 hours). For the same molecule, the ER-phagy suppression in the experiment on U2OS [2] (Timepoint 36 hours) was 5.125%; in the experiment with U2OS [2] (Timepoint 54 hours), 8.089%.
